Read-outs that look alike come from different tables or passages of the source.
Experiment: Pharmacokinetics: onvansertib plasma concentrations by LC/MS-MS
Format: in vivo, human
Conditions: for Cmax / Tmax / AUC(0-t) / half-life: human, plasma, oral; for AUC(0-t): read-out: AUC(0-24)
Description: Pharmacokinetics: Blood samples were collected from patients for pharmacokinetic analysis on days 1 and 5 at predose; at 0.5, 1, 2, 3, 4, 8, and 24 hours after administration of onvansertib; and once on days 8, 15, and 22. Onvansertib plasma concentrations were determined by LC/MS-MS at PRA Bioanalytical Laboratory. The pharmacokinetics parameters, including maximum plasma concentration (Cmax), time to maximum plasma concentration (tmax), half-life (t1/2), and AUC, were calculated for each patient using Phoenix WinNonlin.

[1] = 12 mg/m^2, Cycle 1 day 5, mean ± SD, 12 mg/m^2 + Decitabine, 4 patients
[2] = 12 mg/m^2, Cycle 1 day 5, mean ± SD, 12 mg/m^2 + LDAC, 3 patients
[3] = 18 mg/m^2, Cycle 1 day 5, mean ± SD, 18 mg/m^2 + Decitabine, 3 patients
[4] = 18 mg/m^2, Cycle 1 day 5, mean ± SD, 18 mg/m^2 + LDAC, 3 patients
[5] = 40 mg/m^2, Cycle 1 day 5, mean ± SD, 40 mg/m^2 + LDAC, 3 patients
[6] = 60 mg/m^2, Cycle 1 day 5, mean ± SD, 60 mg/m^2 + Decitabine, 3 patients
[7] = 60 mg/m^2, Cycle 1 day 5, mean ± SD, 60 mg/m^2 + LDAC, 5 patients
[8] = 90 mg/m^2, Cycle 1 day 5, mean ± SD, 90 mg/m^2 + Decitabine, 6 patients
[9] = Cycle 1 day 5, mean ± SD, 27 mg/m^2 + Decitabine, 3 patients
[10] = Cycle 1 day 5, mean ± SD, 27 mg/m^2 + LDAC, 3 patients
[11] = Cycle 1 day 5, mean ± SD, 40 mg/m^2 + Decitabine, 4 patients

CN1CCN(c2ccc(OC(F)(F)F)c(Nc3ncc4c(n3)-c3c(c(C(N)=O)nn3CCO)CC4)c2)CC1 [onvansertib, 1-(2-hydroxyethyl)-8-{[5-(4-methylpiperazin-1-yl)-2-(trifluoromethoxy)phenyl]amino}-4,5-dihydro-1H-pyrazolo [4,3-h] quinazoline-3-carboxamide]
Cmax and AUC0-24 versus dose (both arms, 12-90 mg/m^2): increased proportionally with the administrated dose | Cmax [1]: 163 ± 90 nM | Tmax [1]: 2.5 ± 0.6 h | AUC(0-t) [1]: 2.27 µM·h | half-life (12 mg/m^2, Cycle 1 day 5, mean ± SD, 12 mg/m^2 + Decitabine, 4 patients, read-out: t1/2 (converted)): 26 ± 16 h | Cmax [2]: 153 ± 84 nM | Tmax [2]: 2 ± 1 h | AUC(0-t) [2]: 2.15 µM·h | half-life (12 mg/m^2, Cycle 1 day 5, mean ± SD, 12 mg/m^2 + LDAC, 3 patients, read-out: t1/2 (converted)): 32 ± 21 h | Cmax [3]: 230 ± 129 nM | Tmax [3]: 2.7 ± 0.6 h | AUC(0-t) [3]: 3.38 µM·h | half-life (18 mg/m^2, Cycle 1 day 5, mean ± SD, 18 mg/m^2 + Decitabine, 3 patients, read-out: t1/2 (converted)): 21 ± 7 h | Cmax [4]: 109 ± 39 nM | Tmax [4]: 3 ± 1 h | AUC(0-t) [4]: 1.73 µM·h | half-life (18 mg/m^2, Cycle 1 day 5, mean ± SD, 18 mg/m^2 + LDAC, 3 patients, read-out: t1/2 (converted)): 33 ± 18 h | half-life (40 mg/m^2, Cycle 1 day 5, mean ± SD, 40 mg/m^2 + Decitabine, 4 patients, read-out: t1/2 (converted)): 25 ± 15 h | Cmax [5]: 350 ± 104 nM | Tmax [5]: 1.7 ± 1.2 h | AUC(0-t) [5]: 4.27 µM·h | half-life (40 mg/m^2, Cycle 1 day 5, mean ± SD, 40 mg/m^2 + LDAC, 3 patients, read-out: t1/2 (converted)): 16 ± 7 h | Cmax [6]: 1040 nM | Tmax [6]: 3.3 ± 1.2 h | AUC(0-t) [6]: 16.3 µM·h | half-life (60 mg/m^2, Cycle 1 day 5, mean ± SD, 60 mg/m^2 + Decitabine, 3 patients, read-out: t1/2 (converted)): 47 ± 8 h | Cmax [7]: 905 ± 330 nM | Tmax [7]: 2.4 ± 1.1 h | AUC(0-t) [7]: 12.7 µM·h | half-life (60 mg/m^2, Cycle 1 day 5, mean ± SD, 60 mg/m^2 + LDAC, 5 patients, read-out: t1/2 (converted)): 37 ± 13 h | Cmax [8]: 1310 nM | AUC(0-t) [8]: 21.8 µM·h | half-life (90 mg/m^2, Cycle 1 day 5, mean ± SD, 90 mg/m^2 + Decitabine, 6 patients, read-out: t1/2 (converted)): 30 ± 11 h | Cmax [9]: 4110 ± 118 nM | Tmax [9]: 2 ± 1.7 h | AUC(0-t) [9]: 5.42 µM·h | half-life (Cycle 1 day 5, mean ± SD, 27 mg/m^2 + Decitabine, 3 patients, read-out: t1/2 (converted)): 16 ± 6 h | Cmax [10]: 340 ± 219 nM | Tmax [10]: 2.7 ± 1.5 h | AUC(0-t) [10]: 4.47 µM·h | half-life (Cycle 1 day 5, mean ± SD, 27 mg/m^2 + LDAC, 3 patients, read-out: t1/2 (converted)): 18 ± 5 h | Cmax [11]: 539 ± 228 nM | Tmax [11]: 3.3 ± 1 h | AUC(0-t) [11]: 8.05 µM·h | Tmax (day 5 of cycle 1, across doses and arms): 1.7 to 3.3 h | half-life (day 5 of cycle 1, all patients, read-out: median half-life (t1/2) (converted)): 26.4 h | half-life (day 5 of cycle 1, all patients, read-out: range of half-life (t1/2)): 16 to 46.5 h
